This is an account of results in patent US20260263628A1, “AN ORAL LIQUID COMPOSITION OF VINORELBINE” (INSTITUT GUSTAVE ROUSSY, priority 2022, published 2026).

Counter-ions that a name gives are not always drawn. Like-named read-outs stand apart in the source and are kept apart here.

Data set [1] is described as follows: Isothermal titration calorimetry of CD/vinorelbine systems (titration and competition with SGM). In kind it is physicochemical. Conditions: 25° C.; for Binding constant / ΔbH° (inclusion enthalpy): vinorelbine-CD, phosphate buffer pH 7.0. Here is the method: In the first instance, 12 CDs and CD derivatives supplied by Captisol® (Kansas, USA), SIGMA® (St Louis, Missouri, USA) and MSD® (New Jersey, USA) and authorized by the FDA or the European Medicines Agency (EMA) were tested (U.S Food and Drug Administration C for DE and. Food Additive Status List. FDA 2022. U.S Food and Drug Administration C for DE and. Select Committee on GRAS Substances 2022. Committee for Human Medicinal Products. Cyclodextrins used as excipients. EMA 2017:16). These were alpha-CD, beta-[…] (methyl-beta-CD, low substitution degree), RAMEB (methyl-beta-CD, higher substitution degree), DIMEB (di-O-methyl-beta-[…] (tri-O-methyl-beta-CD), HP-beta-CD (Hydroxypropyl-beta-CD), SBE-beta-CD (Sulfobutylether-beta-CD), gamma-CD, HP-gamma-CD (Hydroxypropyl-gamma-CD), SBE-gamma-CD (Sulfobutylether-gamma-CD), and sugammadex (SGM). Vinorelbine ditartrate and 50 mM CD solutions were prepared in phosphate buffer pH 7.0. […] To confirm the validity of the chosen stoichiometric model and to increase the accuracy of the thermodynamic parameters, each system was also subjected to a competition experiment with SGM: a solution of 0.5 mM vinorelbine and 10 mM CD titrated against a mixture containing 5 mM SGM and 10 mM CD. […] For all CDs the measurements were performed at 25° C., and the stirring speed was set at 1000 rpm. The resulting heat flux was recorded as a function of time. Prior to data analysis, blank titrations were performed under the same experimental conditions by injecting individual species into buffer, and/or buffer into species and buffer into buffer to determine the heat of dilution. […] The peak area after each injection was obtained by integration of the resulting signal and was expressed as the heat effect per injection. The binding constant (KB), inclusion enthalpy (ΔbH°), and heat capacity (ΔbCp®) were determined using a program developed by Bertaut and Landy involving a global analysis of all binding isotherms obtained for a given system (Bertaut et al. Beilstein J Org Chem 2014:12). A set of thermodynamic parameters was employed for simultaneous nonlinear regression analyses of titration and competition experiments.
Background: ITC needs no label: the signal is the heat of the interaction.

The nature of data set [2]: Haze / precipitate on mixing CD with vinorelbine (2D NMR sample preparation). In kind it is physicochemical. Here is the method: In order to confirm the type of existing interaction (inclusion complex, type of binding) between CD and vinorelbine, a two-dimensional proton NMR was performed on PA (Spitzer et al, J Heterocycl Chem 1995; 32:1255-9), CDs (Schneider et al, Chem Rev 1998; 98:1755-86) and complexes (Vogt et al, Mol Pharm 2012; 9:3357-74; Péan et al, J Chim Phys Phys-Chim Biol 1999; 96:1486-93). Vinorelbine 10 mM stock solution (SS) was prepared by dissolving 21.58 mg of vinorelbine tartrate in 2 mL of deuterated water. CD stock solutions were prepared by dissolving: 21.78 mg SGM in 1 mL heavy water (SS2), 9.73 mg alpha-CD in ImL heavy water (SS3), 21.63 mg SBE-beta-CD in 1 mL heavy water (SS4), and 20.72 mg SBE-gamma-CD in 1 mL heavy water (SS5). These stock solutions were used for the preparation of 10 samples containing vinorelbine, CDs or a mixture of CDs and vinorelbine in deuterated water as shown in Table 1.
A range of vinorelbine-SGM mixtures was performed from 1.5 mmol/L to 5 mmol/L. The haze appears from the mixture of concentration 2.5 mmol/L (sample 10).

The nature of data set [3]: Simulated complexation of vinorelbine in CD using the constants of Table 2. The conditions noted are these: for CD concentration needed to obtain 95% of complexation: vinorelbine solution at 20 mg/mL (25.7 mmol/L). As for the experimental part: To obtain 95% of complexation for a solution at 20 mg/mL (ie 25.7 mmol/L), about 62 mmol/L of SGM or about 71 mmol/L of SBE-beta-CD is needed.
Using the constant values of Table 2, we simulated the complexation of vinorelbine in CD depending on the CD concentration and the final concentration of the vinorelbine solution. To achieve a concentration of 10 mg/mL, approximately 49 mmol/L sugammadex or 58 mmol/L SBE-beta-CD is required to reach 95% of complexation. For 18 mg/mL, approximately 59 mmol/L sugammadex or 68 mmol/L SBE-beta-CD is required to obtain the same complexation rate. […] This indicates a real and strong complexation between vinorelbine and cyclodextrin.

The conditions of data set [4]: cited from earlier work.
The test system of another data set is EpiOral. In kind it is cell-based. The conditions noted are these: vinorelbine 20 mg/mL. As for the experimental part: EpiOral were also used for immunohistology analysis as follow: 3 untreated tissues (negative control, NC), 3 tissues in contact with SBE-β-CD, 3 tissues in contact with vinorelbine at 20 mg/mL concentration, 3 tissues in contact with vinorelbine complexed with SBE-β-CD and 3 tissues in contact with 1% Triton X-100 (positive control, PC). Tissues samples were fixed with 4% PFA and embedded in paraffin. Sections (3 μm thick) were deparaffinized and were stained with Hematoxylin and Eosin (H&E). For immunofluorescence, slides were incubated overnight at 4° C. with primary antibodies diluted in 0.02% Triton X-100-PBS. Primary antibodies were as follows: rabbit anti-Ki67 (ab16667; 1/75; Abcam), mouse anti-E-Cadherin (ab1416; 1/100; Abcam), rabbit anti-Claudin 4 (ab210796; 1/200; Abcam), mouse anti-Cytokeratin 10 (ab9026; 1/100; Abcam), rabbit anti-Cytokeratin 13 (ab97327; 1/50; Abcam) and mouse anti-Cytokeratin 14 (ab7800; 1/50; Abcam). For immunofluorescence detection, secondary antibody Alexa Fluor™ plus 488 goat anti-mouse (1:200; Invitrogen A11029), Alexa Fluor™ plus 488 donkey anti-rabbit (1:200; Invitrogen A21206), Alexa Fluor™ plus 594 goat anti-mouse (1:200; Invitrogen A32742) and Alexa Fluor™ plus 594 goat anti-rabbit (1:200; Invitrogen A32740) were used. […]

`OC[C@H]1O[C@@H]2O[C@H]3[C@H](O)[C@@H](O)[C@@H](O[C@H]4[C@H](O)[C@@H](O)[C@@H](O[C@H]5[C@H](O)[C@@H](O)[C@@H](O[C@H]6[C@H](O)[C@@H](O)[C@@H](O[C@H]7[C@H](O)[C@@H](O)[C@@H](O[C@H]1[C@H](O)[C@H]2O)O[C@@H]7CO)O[C@@H]6CO)O[C@@H]5CO)O[C@@H]4CO)O[C@@H]3CO` [Alpha-CD, alpha-cyclodextrin]: in data set [1], the “Heat variation / interaction with vinorelbine in titration experiments” value (“Heat variation / interaction” for short) was “small heat variation”, the Binding constant came out at 106 L/mol and the “ΔbH° (inclusion enthalpy)” value is -1.185 kcal/mol.
For `O=C(O)CCSC[C@H]1O[C@@H]2O[C@H]3[C@H](O)[C@@H](O)[C@@H](O[C@H]4[C@H](O)[C@@H](O)[C@@H](O[C@H]5[C@H](O)[C@@H](O)[C@@H](O[C@H]6[C@H](O)[C@@H](O)[C@@H](O[C@H]7[C@H](O)[C@@H](O)[C@@H](O[C@H]8[C@H](O)[C@@H](O)[C@@H](O[C@H]9[C@H](O)[C@@H](O)[C@@H](O[C@H]1[C@H](O)[C@H]2O)O[C@@H]9CSCCC(=O)O)O[C@@H]8CSCCC(=O)O)O[C@@H]7CSCCC(=O)O)O[C@@H]6CSCCC(=O)O)O[C@@H]5CSCCC(=O)O)O[C@@H]4CSCCC(=O)O)O[C@@H]3CSCCC(=O)O` [SGM, sugammadex], the “Haze / precipitate when mixed with vinorelbine” value in data set [2] is reported as “a haze appeared”. The “Concentration of vinorelbine-CD mixture from which haze appears” value in data set [2] (range 1.5 to 5 mmol/L, deuterated water) is at least 2500 µM. Moreover, the “CD concentration required to reach 95% of complexation” value in data set [3] (vinorelbine 10 mg/mL) is on record as “approximately 49 mmol/L”. For the same compound, in data set [3] (vinorelbine 18 mg/mL), the “CD concentration required to reach 95% of complexation” value was “approximately 59 mmol/L”. Moreover, the “CD concentration needed to obtain 95% of complexation” value in data set [3] was “about 62 mmol/L”. In data set [1], the “Heat variation / interaction” value is reported as “an interaction is observed”, the Binding constant worked out at 511 L/mol and the “ΔbH° (inclusion enthalpy)” value is -3.177 kcal/mol.
On to `CCC1=C[C@@H]2CN(C1)Cc1c([nH]c3ccccc13)[C@@](C(=O)OC)(c1cc3c(cc1OC)N(C)[C@H]1[C@@](O)(C(=O)OC)[C@H](OC(C)=O)[C@]4(CC)C=CCN5CC[C@]31[C@@H]54)C2` [vinorelbine, vinorelbine ditartrate salt hydrate], for which the Solubility entry was “insoluble” in data set [4] (aprotic solvents), “partially soluble” in data set [4] (methanol) and “totally soluble” in data set [4] (water). Besides, the “Cytotoxicity / TUNEL marking” value in the data set with EpiOral was “causes cell mortality and destroys tight tissue junctions”. For the same compound, the “E-cadherin marking (tight junctions)” value in the data set with EpiOral (Triton X-100 1%) is “loss of E-cadherin marking”.
Turning to Sulfobutylether-gamma-CD [SBE-gamma-CD], in data set [1], the “Heat variation / interaction” value is “an interaction is observed”, the Binding constant stood at 121 L/mol and the “ΔbH° (inclusion enthalpy)” value is given as “+514 cal/mol”.
Turning to “sulfobutylether-beta-cyclodextrin [SBE-beta-CD]”, the “Haze / precipitate when mixed with vinorelbine” value in data set [2] was “does not produce any precipitate”. Further, the “CD concentration required to reach 95% of complexation” value in data set [3] (vinorelbine 10 mg/mL) was around 58 mmol/L. Also, the “CD concentration required to reach 95% of complexation” value in data set [3] (vinorelbine 18 mg/mL) is around 68 mmol/L. In addition, the “CD concentration needed to obtain 95% of complexation” value in data set [3] was “about 71 mmol/L”. In data set [1], the “Heat variation / interaction” value is listed as “an interaction is observed”, the Binding constant was determined as 412 L/mol and the “ΔbH° (inclusion enthalpy)” value is given as “+2305 cal/mol”.
